{
  "source": "patent US8569378B2",
  "about": "“p27 protein inducer” (Chugai Seiyaku Kabushiki Kaisha, priority 2007, dated 2013)",
  "system": "p27 protein",
  "assay": "Quantification of p27 protein by ELISA (p27 protein-inducing activity, EC50)",
  "format": "cell-based, human",
  "conditions": "NCI-H460 cells, 48 hours, p27 sandwich ELISA",
  "experimental": "The p27 protein-inducing activities of the compounds or salts listed in Tables 1-1, 1-2 and 2 below were measured as follows.\nPreparation of Cell Lysate:\nNCI-H460 human non-small cell lung cancer cells (ATCC HTB-177) were plated in 6-well plates at 2×10^5 cells/well and incubated overnight. Then, the test substance was added to the medium to a final concentration of 10000 nmol/L, 3000 nmol/L, 100 nmol/L, 30 nmol/L, 10 nmol/L, 3 nmol/L, 1 nmol/L, 0.3 nmol/L, 0.1 nmol/L, 0.03 nmol/L or 0.01 nmol/L and the cells were incubated at 37° C. in 5% CO2 for 48 hours. 150 μL of Cell Lysis Buffer (catalog no. 9803, Cell Signaling) which had been diluted to 1-fold concentration (1 mM PMSF was added immediately before use) was added, and the mixture was allowed to stand on ice for 10 minutes. The Cell Lysis Buffer in which cells were lysed was collected together with cells with a scraper and transferred to a new tube. It was centrifuged at 15000 rpm for 10 minutes at 4° C. and the supernatant was then transferred to a new tube.\nQuantification by Sandwich ELISA:\nAnti-p27 monoclonal antibody (catalog no. 71-9600, Zymed) was diluted to 5 μg/mL in 50 mM carbonate coating buffer (0.4 g/L NaCO3, 0.73 g/L NaHCO3 and 0.04 g/L NaN3 in distilled water), and it was then added at 50 μL/well and allowed to stand overnight at 4° C. to bind the antibody. After washing three times with PBS, 200 μL of blocking solution (0.2% I-Block in PBS) was added to each well. After 1 hour of incubation at room temperature, washing with PBS-T (0.05% Tween 20 in PBS) was performed three times. The sample and recombinant p27 protein standard were serially diluted in Cell Lysis Buffer (catalog no. 9803, Cell Signaling) which had been diluted to 1-fold concentration (1 mM PMSF was added immediately before use), and it was then added at 100 μL/well. After 1 hour of incubation at room temperature, washing with 200 μL of PBS-T was performed three times. HRP-labeled anti-p27 antibody (product no. 610243, BD Transdution Laboratories) was diluted 1:2500 (i.e. to 0.1 μg/mL) in 0.2% I-Block/0.05% PBS-T, and it was then added at 100 μL/well. After 1 hour of incubation at room temperature, washing with 200 μL of PBS-T was performed three times. Chromogenic substrate solution (TMB One Solution, catalog no. G7431, Promega) was added at 100 μL/well and allowed to develop a color reaction at room temperature. After stopping the reaction with 50 μL of 1N H2SO4, the absorbance at 450 nm was measured.\nCalculation of EC50 Values:\nA standard response curve was generated by plotting the amount of p27 protein against the concentration of the test substance. The basal level of response was defined as 0%, while the plateau level where the induction of p27 protein had been maximized was defined as 100%. Finally, the test substance concentration at which 50% induction was achieved was calculated, and it was defined as EC50.",
  "data": [
    {"smiles": "CNS(=O)(=O)Nc1cc(Cc2c(C)c3cc(Cl)c(OC(=O)N(C)C)cc3oc2=O)ccn1", "note": "[Compound 1j-1-12-2, Dimethylcarbamic acid 4-methyl-3-{2-(methylaminosulfonyl)aminopyridin-4-ylmethyl}-6-chloro-2-oxo-2H-1-benzopyran-7-yl ester]", "values": [
      {"measurement": "EC50", "setting": "Table 1-2", "result": 1100, "unit": "nM"}
    ]},
    {"smiles": "CNS(=O)(=O)Nc1cccc(Cc2c(C)c3ccc(OC(=O)N(C)C)cc3oc2=O)n1", "note": "[Compound 1j-1-13-2, Dimethylcarbamic acid 4-methyl-3-{6-(methylaminosulfonyl)aminopyridin-2-ylmethyl}-2-oxo-2H-1-benzopyran-7-yl ester]", "values": [
      {"measurement": "EC50", "setting": "Table 2", "result": 2500, "unit": "nM"}
    ]},
    {"smiles": "CNS(=O)(=O)Nc1nccc(Cc2c(C)c3cc(Cl)c(Oc4ncccn4)cc3oc2=O)c1F", "note": "[Compound 1j-2-18-2, 3-{2-(Methylaminosulfonyl)amino-3-fluoropyridin-4-ylmethyl}-4-methyl-6-chloro-7-(pyrimidin-2-yloxy)-2-oxo-2H-1-benzopyran]", "values": [
      {"measurement": "EC50", "setting": "Table 1-2", "result": 43, "unit": "nM"}
    ]},
    {"smiles": "Cc1c(Cc2cccc(NS(N)(=O)=O)c2F)c(=O)oc2cc(OC(=O)N(C)C)ccc12", "note": "[Compound 1j-1-4-1, Dimethylcarbamic acid 3-(3-aminosulfonylamino-2-fluoro-benzyl)-4-methyl-2-oxo-2H-1-benzopyran-7-yl ester]", "values": [
      {"measurement": "EC50", "setting": "Table 1-1", "result": 180, "unit": "nM"}
    ]},
    {"smiles": "CNS(=O)(=O)Nc1nccc(Cc2c(C)c3ccc(Oc4ncccn4)cc3oc2=O)c1F", "note": "[Compound 1j-2-16-2, 3-{2-(Methylaminosulfonyl)amino-3-fluoropyridin-4-ylmethyl}-4-methyl-7-(pyrimidin-2-yloxy)-2-oxo-2H-1-benzopyran]", "values": [
      {"measurement": "EC50", "setting": "Table 2", "result": 504, "unit": "nM"}
    ]},
    {"smiles": "CNS(=O)(=O)Nc1nccc(Cc2c(C)c3cc(C)c(Oc4ncccn4)cc3oc2=O)c1F", "note": "[Compound 1j-2-19-2, 3-{2-(Methylaminosulfonyl)amino-3-fluoropyridin-4-ylmethyl}-4-methyl-6-methyl-7-(pyrimidin-2-yloxy)-2-oxo-2H-1-benzopyran]", "values": [
      {"measurement": "EC50", "setting": "Table 1-2", "result": 160, "unit": "nM"}
    ]},
    {"smiles": "CNS(=O)(=O)Nc1cccc(Cc2c(CF)c3cc(Cl)c(OC(=O)N(C)C)cc3oc2=O)c1", "note": "[Compound 1j-1-3-2F, Dimethylcarbamic acid 6-chloro-4-fluoromethyl-3-{3-(methylaminosulfonyl)aminobenzyl}-2-oxo-2H-1-benzopyran-7-yl ester]", "values": [
      {"measurement": "EC50", "setting": "Table 1-1", "result": 31, "unit": "nM"}
    ]},
    {"smiles": "CNS(=O)(=O)Nc1cccc(Cc2c(C)c3cc(C#N)c(OC(=O)N(C)C)cc3oc2=O)c1", "note": "[Compound 1j-1-9-2, Dimethylcarbamic acid 6-cyano-4-methyl-3-{3-(methylaminosulfonyl)aminobenzyl}-2-oxo-2H-1-benzopyran-7-yl ester]", "values": [
      {"measurement": "EC50", "setting": "Table 1-1", "result": 4800, "unit": "nM"}
    ]},
    {"smiles": "CNS(=O)(=O)Nc1cccc(Cc2c(C)c3cc(C)c(Oc4nccs4)cc3oc2=O)c1", "note": "[Compound 1j-3-8-2, 3-{3-(Methylaminosulfonyl)aminobenzyl}-4-methyl-7-(thiazol-2-yloxy)-6-methyl-2-oxo-2H-1-benzopyran]", "values": [
      {"measurement": "EC50", "setting": "Table 2", "result": 540, "unit": "nM"}
    ]},
    {"smiles": "Cc1c(Cc2cccc(NS(=O)(=O)NCCC#N)c2)c(=O)oc2cc(OC(=O)N(C)C)c(Cl)cc12", "note": "[Compound 1j-1-21-2, Dimethylcarbamic acid 3-(3-(N-(2-cyanoethyl)sulfamoyl)aminobenzyl)-6-chloro-4-methyl-2-oxo-2H-1-benzopyran-7-yl ester]", "values": [
      {"measurement": "EC50", "setting": "Table 1-1", "result": 150, "unit": "nM"}
    ]},
    {"smiles": "CNS(=O)(=O)Nc1nccc(Cc2c(C)c3cc(F)c(Oc4ncccn4)cc3oc2=O)c1F", "note": "[Compound 1j-2-17-2, 3-{2-(methylaminosulfonyl)amino-3-fluoropyridin-4-ylmethyl}-4-methyl-6-fluoro-7-(pyrimidin-2-yloxy)-2-oxo-2H-1-benzopyran]", "values": [
      {"measurement": "EC50", "setting": "Table 1-2", "result": 220, "unit": "nM"}
    ]},
    {"smiles": "CCc1c(Cc2ccnc(NS(=O)(=O)NC)c2F)c(=O)oc2cc(Oc3ncccn3)c(C)cc12", "note": "[Compound 1j-2-19-2Me, 3-{2-(Methylaminosulfonyl)amino-3-fluoropyridin-4-ylmethyl}-4-ethyl-6-methyl-7-(pyrimidin-2-yloxy)-2-oxo-2H-1-benzopyran]", "values": [
      {"measurement": "EC50", "setting": "Table 1-2", "result": 48, "unit": "nM"}
    ]},
    {"smiles": "CNC(=O)CS(=O)(=O)Nc1cccc(Cc2c(C)c3cc(Cl)c(OC(=O)N(C)C)cc3oc2=O)c1", "note": "[Compound 1o-1-3-2, Dimethylcarbamic acid 3-(3-methylcarbamoylmethanesulfonylamino-benzyl)-6-chloro-4-methyl-2-oxo-2H-1-benzopyran-7-yl ester]", "values": [
      {"measurement": "EC50", "setting": "Table 1-1", "result": 290, "unit": "nM"}
    ]},
    {"smiles": "CNS(=O)(=O)Nc1nccc(Cc2c(C)c3cc(C)c(Oc4nccs4)cc3oc2=O)c1Cl", "note": "[Compound 1j-3-44-2, 3-{2-(Methylaminosulfonyl)amino-3-chloropyridin-4-ylmethyl}-4-methyl-6-methyl-7-(thiazol-2-yloxy)-2-oxo-2H-1-benzopyran]", "values": [
      {"measurement": "EC50", "setting": "Table 1-2", "result": 202, "unit": "nM"}
    ]},
    {"smiles": "CNC(=O)CS(=O)(=O)Nc1cccc(Cc2c(C)c3ccc(Oc4nccs4)cc3oc2=O)c1F", "note": "[Compound 1o-3-4-2, 2-{2-Fluoro-3-[4-methyl-2-oxo-7-(thiazol-2-yloxy)-2H-1-benzopyran-3-ylmethyl]phenylsulfamoyl}-N-methyl-acetamide]", "values": [
      {"measurement": "EC50", "setting": "Table 2", "result": 2660, "unit": "nM"}
    ]},
    {"smiles": "CNS(=O)(=O)Nc1cccc(Cc2c(C)c3ccc(Oc4nccs4)cc3oc2=O)c1", "note": "[Compound 1j-3-1-2, 3-{3-(Methylaminosulfonyl)aminobenzyl}-4-methyl-7-(thiazol-2-yloxy)-2-oxo-2H-1-benzopyran]", "values": [
      {"measurement": "EC50", "setting": "Table 2", "result": 7100, "unit": "nM"}
    ]},
    {"smiles": "CNS(=O)(=O)Nc1cccc(Cc2c(C)c3cc(C)c(OC(=O)N(C)C)cc3oc2=O)c1", "note": "[Compound 1j-1-8-2, Dimethylcarbamic acid 6-methyl-4-methyl-3-{3-(methylaminosulfonyl)aminobenzyl}-2-oxo-2H-1-benzopyran-7-yl ester]", "values": [
      {"measurement": "EC50", "setting": "Table 1-1", "result": 240, "unit": "nM"}
    ]},
    {"smiles": "CNS(=O)(=O)Nc1cc(Cc2c(C)c3cc(Cl)c(Oc4ncccn4)cc3oc2=O)ccn1", "note": "[Compound 1j-2-12-2, 3-{2-(Methylaminosulfonyl)aminopyridin-4-ylmethyl}-4-methyl-7-(pyrimidin-2-yloxy)-6-chloro-2-oxo-2H-1-benzopyran]", "values": [
      {"measurement": "EC50", "setting": "Table 2", "result": 1450, "unit": "nM"}
    ]},
    {"smiles": "Cc1c(Cc2cccc(NS(N)(=O)=O)c2)c(=O)oc2cc(OC(=O)N(C)C)c(I)cc12", "note": "[Compound 1j-1-7-1, Dimethylcarbamic acid 3-{3-(aminosulfonyl)aminobenzyl}-6-iodo-4-methyl-2-oxo-2H-1-benzopyran-7-yl ester]", "values": [
      {"measurement": "EC50", "setting": "Table 1-1", "result": 160, "unit": "nM"}
    ]},
    {"smiles": "CNS(=O)(=O)Nc1cccc(Cc2c(C)c3cc(I)c(OC(=O)N(C)C)cc3oc2=O)c1", "note": "[Compound 1j-1-7-2, Dimethylcarbamic acid 6-iodo-4-methyl-3-{3-(methylaminosulfonyl)aminobenzyl}-2-oxo-2H-1-benzopyran-7-yl ester]", "values": [
      {"measurement": "EC50", "setting": "Table 1-1", "result": 27, "unit": "nM"}
    ]},
    {"smiles": "CNS(=O)(=O)Nc1cccc(Cc2c(C)c3ccc(OC(=O)N(C)C)cc3oc2=O)c1F", "note": "[Compound 1j-1-4-2, Dimethylcarbamic acid 3-(3-methylaminosulfonylamino-2-fluoro-benzyl)-4-methyl-2-oxo-2H-1-benzopyran-7-yl ester]", "values": [
      {"measurement": "EC50", "setting": "Table 1-1", "result": 78, "unit": "nM"}
    ]},
    {"smiles": "Cc1c(Cc2cccc(NS(=O)(=O)N(C)C)c2)c(=O)oc2cc(OC(=O)N(C)C)c(Cl)cc12", "note": "[Compound 1j-1-3-3, Dimethylcarbamic acid 6-chloro-4-methyl-3-{3-(dimethylaminosulfonyl)aminobenzyl}-2-oxo-2H-1-benzopyran-7-yl ester]", "values": [
      {"measurement": "EC50", "setting": "Table 1-1", "result": 74, "unit": "nM"}
    ]},
    {"smiles": "CNS(=O)(=O)Nc1cc(Cc2c(C)c3cc(Cl)c(Oc4nccs4)cc3oc2=O)ccn1", "note": "[Compound 1j-3-12-2, 3-{2-(Methylaminosulfonyl)aminopyridin-4-ylmethyl}-4-methyl-6-chloro-7-(thiazol-2-yloxy)-2-oxo-2H-1-benzopyran]", "values": [
      {"measurement": "EC50", "setting": "Table 1-2", "result": 458, "unit": "nM"}
    ]},
    {"smiles": "CNS(=O)(=O)Nc1cccc(Cc2c(C)c3cc(F)c(OC(=O)N(C)C)cc3oc2=O)c1F", "note": "[Compound 1j-1-5-2, Dimethylcarbamic acid 6-fluoro-4-methyl-3-{2-fluoro-3-(methylaminosulfonyl)aminobenzyl}-2-oxo-2H-1-benzopyran-7-yl ester]", "values": [
      {"measurement": "EC50", "setting": "Table 1-1", "result": 210, "unit": "nM"}
    ]},
    {"smiles": "CNS(=O)(=O)Nc1cc(Cc2c(C)c3cc(C)c(Oc4nccs4)cc3oc2=O)ccn1", "note": "[Compound 1j-3-20-2, 3-{2-(Methylaminosulfonyl)aminopyridin-4-ylmethyl}-4-methyl-6-methyl-7-(thiazol-2-yloxy)-2-oxo-2H-1-benzopyran]", "values": [
      {"measurement": "EC50", "setting": "Table 1-2", "result": 100, "unit": "nM"}
    ]}
  ]
}
